The structures appear in SMILES notation.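 1) Cells in 96-well plates. 2) Compound, 48 h, 5 concentrations. 3) Linear interpolation between surrounding doses. 4) Unreached endpoint = highest concentration. TGI: total growth inhibition.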

The subject of one assay is NCI-H23 lung. Kind of assay: inhibition of tumour cell growth, NCI panel, 48 h.
Compound `O=C(O)c1nc2ccc(C(F)(F)F)cc2nc1NCc1ccc(F)cc1` came in with a TGI of 79.8 µM.
`Oc1cc(O)cc(-c2nc3cc(F)ccc3s2)c1` showed a TGI of 94.5 µM.

A further assay deals with NCI-H460 lung. Kind of assay: inhibition of tumour cell growth, NCI panel, 48 h.
The compound `COc1ccc(C2OC(N)=C(C#N)C3=C2CCCC3C)cc1OC` (configuration not stated) yielded a TGI of over 100 µM.
As to `COc1ccc(CC2c3cc(OC)c(OC)cc3CC[N+]2(C)C)cc1OC` (configuration not stated), the TGI was over 100 µM.
Regarding `O=C(O)c1nc2ccc(C(F)(F)F)cc2nc1NCc1ccc(F)cc1`, the TGI came out at 63 µM.
Still for that read-out and setting: next, `Oc1cc(O)cc(-c2nc3cc(F)ccc3s2)c1`: 54 µM.

The subject of another assay is NCI-H522 lung. Kind of assay: inhibition of tumour cell growth, NCI panel, 48 h.
`COc1ccc(CC2c3cc(OC)c(OC)cc3CC[N+]2(C)C)cc1OC` (configuration not stated): the TGI is over 100 µM.
Take `Oc1cc(O)cc(-c2nc3cc(F)ccc3s2)c1`: the TGI is 36.9 µM.

A further assay concerns NCI/ADR-RES ovarian. Kind of assay: inhibition of tumour cell growth, NCI panel, 48 h.
In turn, `COc1ccc(C2OC(N)=C(C#N)C3=C2CCCC3C)cc1OC` (configuration not stated) came in with a TGI of over 100 µM.
The same measure, in the same setting: under `COc1ccc(CC2c3cc(OC)c(OC)cc3CC[N+]2(C)C)cc1OC` (configuration not stated) stands over 100 µM; under `O=C(O)c1nc2ccc(C(F)(F)F)cc2nc1NCc1ccc(F)cc1`, over 100 µM; under `Oc1cc(O)cc(-c2nc3cc(F)ccc3s2)c1`, over 100 µM.

The next assay concerns OVCAR-3 ovarian. Kind of assay: inhibition of tumour cell growth, NCI panel, 48 h.
As to `COc1ccc(C2OC(N)=C(C#N)C3=C2CCCC3C)cc1OC` (configuration not stated), the TGI is over 100 µM.
The same measure, in the same setting: next, `COc1ccc(CC2c3cc(OC)c(OC)cc3CC[N+]2(C)C)cc1OC` (configuration not stated): over 100 µM.
Take `O=C(O)c1nc2ccc(C(F)(F)F)cc2nc1NCc1ccc(F)cc1`: the TGI was 33.2 µM.
Turning to `Oc1cc(O)cc(-c2nc3cc(F)ccc3s2)c1`, the TGI came out at 63.6 µM.

The next assay relates to OVCAR-4 ovarian. Description: inhibition of tumour cell growth, NCI panel, 48 h.
For the compound `COc1ccc(CC2c3cc(OC)c(OC)cc3CC[N+]2(C)C)cc1OC` (configuration not stated), the TGI is over 100 µM.
With `O=C(O)c1nc2ccc(C(F)(F)F)cc2nc1NCc1ccc(F)cc1`, the TGI is over 100 µM.
`Oc1cc(O)cc(-c2nc3cc(F)ccc3s2)c1` returned a TGI of 63.7 µM.

A further assay has as its system OVCAR-5 ovarian. Kind of assay: inhibition of tumour cell growth, NCI panel, 48 h.
`COc1ccc(C2OC(N)=C(C#N)C3=C2CCCC3C)cc1OC` (configuration not stated) displayed a TGI of over 100 µM.
`COc1ccc(CC2c3cc(OC)c(OC)cc3CC[N+]2(C)C)cc1OC` (configuration not stated): the TGI was over 100 µM.
On the same count and under the same terms, under `O=C(O)c1nc2ccc(C(F)(F)F)cc2nc1NCc1ccc(F)cc1` stands 42.5 µM; under `Oc1cc(O)cc(-c2nc3cc(F)ccc3s2)c1`, 57.2 µM.

For another assay, the system named is OVCAR-8 ovarian. Description: inhibition of tumour cell growth, NCI panel, 48 h.
In the case of `COc1ccc(C2OC(N)=C(C#N)C3=C2CCCC3C)cc1OC` (configuration not stated), the TGI was over 100 µM.
Take `COc1ccc(CC2c3cc(OC)c(OC)cc3CC[N+]2(C)C)cc1OC` (configuration not stated): the TGI is over 100 µM.
`O=C(O)c1nc2ccc(C(F)(F)F)cc2nc1NCc1ccc(F)cc1` displayed a TGI of 55.7 µM.
The compound `Oc1cc(O)cc(-c2nc3cc(F)ccc3s2)c1` registered a TGI of 64.8 µM.

Another assay has as its system PC-3 prostate. Kind of assay: inhibition of tumour cell growth, NCI panel, 48 h.
The compound `COc1ccc(C2OC(N)=C(C#N)C3=C2CCCC3C)cc1OC` (configuration not stated) yielded a TGI of over 100 µM.
Same read-out and setting: next, `COc1ccc(CC2c3cc(OC)c(OC)cc3CC[N+]2(C)C)cc1OC` (configuration not stated): over 100 µM.
The compound `O=C(O)c1nc2ccc(C(F)(F)F)cc2nc1NCc1ccc(F)cc1` yielded a TGI of 82.6 µM.
Compound `Oc1cc(O)cc(-c2nc3cc(F)ccc3s2)c1` displayed a TGI of 83.6 µM.

The next assay relates to RPMI-8226 leukemia. Description: inhibition of tumour cell growth, NCI panel, 48 h.
Take `COc1ccc(C2OC(N)=C(C#N)C3=C2CCCC3C)cc1OC` (configuration not stated): the TGI is over 100 µM.
With `COc1ccc(CC2c3cc(OC)c(OC)cc3CC[N+]2(C)C)cc1OC` (configuration not stated), the TGI was over 100 µM.
Compound `O=C(O)c1nc2ccc(C(F)(F)F)cc2nc1NCc1ccc(F)cc1` gave a TGI of over 100 µM.
For the compound `Oc1cc(O)cc(-c2nc3cc(F)ccc3s2)c1`, the TGI stood at 50.2 µM.

For another assay, the system named is RXF 393 renal. Description: inhibition of tumour cell growth, NCI panel, 48 h.
Take `COc1ccc(C2OC(N)=C(C#N)C3=C2CCCC3C)cc1OC` (configuration not stated): the TGI is over 100 µM.
Turning to `O=C(O)c1nc2ccc(C(F)(F)F)cc2nc1NCc1ccc(F)cc1`, the TGI is over 100 µM.
In turn, `Oc1cc(O)cc(-c2nc3cc(F)ccc3s2)c1` yielded a TGI of 72.4 µM.

Another assay concerns SF-268 CNS. Kind of assay: inhibition of tumour cell growth, NCI panel, 48 h.
`COc1ccc(C2OC(N)=C(C#N)C3=C2CCCC3C)cc1OC` (configuration not stated): the TGI is over 100 µM.
`COc1ccc(CC2c3cc(OC)c(OC)cc3CC[N+]2(C)C)cc1OC` (configuration not stated) showed a TGI of over 100 µM.
Still for that read-out and setting: next, `Oc1cc(O)cc(-c2nc3cc(F)ccc3s2)c1`: 50.8 µM.

The test system of a further assay is SF-295 CNS. Kind of assay: inhibition of tumour cell growth, NCI panel, 48 h.
In turn, `COc1ccc(C2OC(N)=C(C#N)C3=C2CCCC3C)cc1OC` (configuration not stated) displayed a TGI of over 100 µM.
The compound `COc1ccc(CC2c3cc(OC)c(OC)cc3CC[N+]2(C)C)cc1OC` (configuration not stated) had a TGI of over 100 µM.
Regarding `O=C(O)c1nc2ccc(C(F)(F)F)cc2nc1NCc1ccc(F)cc1`, the TGI is 81.1 µM.
Compound `Oc1cc(O)cc(-c2nc3cc(F)ccc3s2)c1` yielded a TGI of 36 µM.

A further assay has as its system SF-539 CNS. Kind of assay: inhibition of tumour cell growth, NCI panel, 48 h.
For `COc1ccc(C2OC(N)=C(C#N)C3=C2CCCC3C)cc1OC` (configuration not stated), the TGI was over 100 µM.
Turning to `COc1ccc(CC2c3cc(OC)c(OC)cc3CC[N+]2(C)C)cc1OC` (configuration not stated), the TGI was over 100 µM.
Compound `O=C(O)c1nc2ccc(C(F)(F)F)cc2nc1NCc1ccc(F)cc1` registered a TGI of 43.5 µM.
The same measure, in the same setting: under `Oc1cc(O)cc(-c2nc3cc(F)ccc3s2)c1` stands 68.3 µM.

For another assay, the system named is SK-MEL-2 melanoma. Kind of assay: inhibition of tumour cell growth, NCI panel, 48 h.
As to `COc1ccc(C2OC(N)=C(C#N)C3=C2CCCC3C)cc1OC` (configuration not stated), the TGI was over 100 µM.
`COc1ccc(CC2c3cc(OC)c(OC)cc3CC[N+]2(C)C)cc1OC` (configuration not stated) gave a TGI of over 100 µM.
`O=C(O)c1nc2ccc(C(F)(F)F)cc2nc1NCc1ccc(F)cc1` registered a TGI of 45.1 µM.

Source of the values: PubChem BioAssay (NCI).
